From patent US10301279B2, “Piperidine carboxamide compound, preparation method, and use thereof” (Institute of Pharmacology and Toxicology Academy of …, priority 2013, dated 2019)
Like-named read-outs stand apart in the source and are kept apart here.

Experiments:
Hsp70 [1] = molecular target: T1, Hsp70 (Homo sapiens, UniProt P0DMV8); test: Measurement of affinity for Hsp70 (BIACORE T100, CM5 chip); assay type: binding; details: for effect in preliminary screening of binding to Hsp70, compared with positive compound VER-155008: at 10 μm; for Kd: steady state model, 25° C., PBS containing 5% DMSO
T1 construct: purchased Enzo Life Sciences ADI-ESP-550-D
Protocol: 1. Instrument: BIACORE T100 biomolecular interaction analyzer (GE, USA)
2. Reagents: PBS Buffer (×10), P20, CM5 chip (GE, USA), Hsp70 (human, ADI-ESP-550-D), manufactured by Enzo Life Sciences.
30 mM mother liquor of compound was formulated with DMSO, which was diluted to 2 mM application solution with DMSO before use. 5 μl of the application solution was taken and diluted with 95 μl 1.05×PBS to 100 μM, and then diluted in turn with PBS containing 5% DMSO to 10, 3, 1, 0.3, 0.1, 0.03, 0.01, 0.003 μM, […]. PBS containing 5% DMSO was used as solvent control.
Hsp70 protein was diluted with 10 mmol/L sodium acetate buffer solution (pH 5.0) to 30 μg/ml, and coupled directly on a hydrophilic carboxylmethyl dextran matrix sensor chip M5 through normalized primary amine coupling reaction, RU=11209, and then the chip was balanced for 1-2 h with PBS Buffer at […].
At a flow rate of […], with PBS containing 5% DMSO as mobile phase, at 25° C., the compound was introduced in the sequence of 0.003, 0.01, 0.03, 0.1, 0.3, 1, 3 and 10 μM, with binding time 90 seconds, and dissociation time 120 seconds.
According to binding characteristics between the compounds and protein, the binding constant (equilibrium dissociation constant KD) between drugs and protein was calculated by selecting steady state model with the formula: Conc*Rmax/[conc+KD]+offset.
At a flow rate of […], PBS containing 5% DMSO as mobile phase, at 25° C., the compound was injected in the order of 0.003, 0.01, 0.03, 0.1, 0.3, 1, 3, and 10 μM, with the binding time of 90 sec, and the dissociation time of 120 sec.

SK/Lap^R1.0 = test: Cell survival (ATPlite/CellTiter-Glo luminescence), alone and combined with lapatinib; assay type: cell-based, human; details: SK/Lap^R1.0 cells, 72 hours
Protocol: (§1) Cells plating: a 100 mm culture dish with overgrown adherent cells was digested with 1 ml 0.25% trypsin (GIBCO) at 37° C. for 5 min, and the reaction was terminated with 2 ml culture medium (containing 10% FBS, GIBCO). The cells were scattered and collected, after counting, diluted to 1×10^5 cells/ml, and seeded into a 96-well plate at 50 μl/well, 5000 cells/well, excluding the peripheral circle of wells to which no cell was added, but PBS was added, 60 wells in total, and then incubated at 37° C. for 24 hours for adhering.
(§2) Test after incubation at 37° C. for 72 hours: […] of ATPlite kit substrate solution was added in each well, and vibrated for 3 min, followed by placing aside in darkness for 10 min, and then supernatant 100 μl/well was taken and placed on aluminescence test plate; the luminescence test plate that has been fully incubated was placed in a luminescence test instrument, to read luminescence value.
(§3) (1) Cell survival rate (%)=Experimental group RLU/control group RLU×100%. The experimental data were subjected to data analysis and processing by utilizing GraphPad software.
(§4) (2) The nature of interaction between two drugs was evaluated by using coefficient of drug interaction (CDI), CDI being calculated as follows: CDI=AB/(A×B)×100%. As calculated according to the number of viable cells (luminescence value), when CDI<1, the nature of interaction between two drugs is synergism; when CDI<0.7, the synergism is very significant; when CDI=1, the nature of interaction between two drugs is addition; when CDI>1, the nature of interaction between two drugs is antagonism.

MDA-MB-453 = test: as above; assay type: cell-based, human; details: MDA-MB-453 cells; for Survival rate %: 72 hours
Protocol: as §1, §2, §3, §4

BT/Lap^R1.0 = test: as above; assay type: cell-based, human; details: BT/Lap^R1.0 cells; for Survival rate %: 72 hours
Protocol: as §1, §2, §3, §4

MDA-MB-361 = test: as above; assay type: cell-based, human; details: MDA-MB-361 cells, 72 hours
Protocol: as §1, §2, §3, §4

BT474 = test: as above; assay type: cell-based, human; details: BT474 cells; for Survival rate %: 72 hours
Protocol: as §1, §2, §3, §4

SK-BR3 = test: as above; assay type: cell-based, human; details: SK-BR3 cells; for Survival rate %: 72 hours
Protocol: as §1, §2, §3, §4

Hsp70 [2] = molecular target: T1, Hsp70; details: literature value (Cancer Chemother Pharmacol 2010, 66: 535-545); read-out: affinity for Hsp70, literature value; cited from earlier work
[3] = Example 30 10 μM alone (Lapatinib 0)
[4] = Example 30 10 μM combined with Lapatinib 1 μM
[5] = Example 30 10 μM with Lapatinib 1 μM, CDI<1 synergism
[6] = Lapatinib 1 μM alone (Example 30 0 μM)

T1 sequence (P0DMV8 whole entry): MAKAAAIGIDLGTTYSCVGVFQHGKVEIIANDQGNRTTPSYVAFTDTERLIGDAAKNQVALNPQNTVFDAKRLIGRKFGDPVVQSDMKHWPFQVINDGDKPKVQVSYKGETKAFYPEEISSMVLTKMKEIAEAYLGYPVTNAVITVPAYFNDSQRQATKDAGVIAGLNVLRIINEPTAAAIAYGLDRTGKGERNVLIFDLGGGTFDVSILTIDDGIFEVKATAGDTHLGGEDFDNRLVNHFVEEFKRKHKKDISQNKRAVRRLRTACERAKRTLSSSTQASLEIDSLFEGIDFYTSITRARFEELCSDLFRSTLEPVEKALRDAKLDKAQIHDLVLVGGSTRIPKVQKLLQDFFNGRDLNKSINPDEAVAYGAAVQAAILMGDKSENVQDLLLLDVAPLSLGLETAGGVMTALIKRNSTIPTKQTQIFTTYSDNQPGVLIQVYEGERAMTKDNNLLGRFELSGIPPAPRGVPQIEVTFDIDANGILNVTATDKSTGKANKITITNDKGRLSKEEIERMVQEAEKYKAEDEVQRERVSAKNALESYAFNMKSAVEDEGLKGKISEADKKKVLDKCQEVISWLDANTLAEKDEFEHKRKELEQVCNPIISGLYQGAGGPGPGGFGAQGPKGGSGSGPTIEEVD

CN(C(=O)Cn1ccnc1)C1CCN(c2nccc(Cl)n2)CC1 [Example 30, N-methyl-N-[1-(4-chloropyrimidin-2-yl)piperidin-4-yl]-[2-(imidazol-1-yl)]acetamide]
effect in preliminary screening of binding to Hsp70, compared with positive compound VER-155008 (Hsp70 [1]): equivalent to that of positive compound VER-155008
Kd (Hsp70 [1]): 0.225 µM
Survival rate % (SK/Lap^R1.0; [3]): 94.2%
Survival rate % (SK/Lap^R1.0; [4]): 56.9%
Survival rate % (MDA-MB-453; [3]): 82.8%
Survival rate % (MDA-MB-453; [4]): 36.6%
CDI (coefficient of drug interaction) (MDA-MB-453; [5]): 1.26
Survival rate % (BT/Lap^R1.0; [3]): 92.5%
Survival rate % (BT/Lap^R1.0; [4]): 50.6%
CDI (coefficient of drug interaction) (BT/Lap^R1.0; [5]): 1.03
Survival rate % (MDA-MB-361; [3]): 104.1%
Survival rate % (MDA-MB-361; [4]): 69.1%
Survival rate % (BT474; [3]): 93.5%
Survival rate % (BT474; [4]): 24.8%
CDI (coefficient of drug interaction) (BT474; [5]): 1.05
Survival rate % (SK-BR3; [3]): 83.8%
Survival rate % (SK-BR3; [4]): 24.9%
CDI (coefficient of drug interaction) (SK-BR3; [5]): 1.13

CN(C(=O)OC(C)(C)C)C1CCN(c2ccnc(Cl)n2)CC1 [Example 2, t-butyl N-methyl-N-[1-(2-chloropyrimidin-4-yl)piperidin-4-yl]carbamate]
effect in preliminary screening of binding to Hsp70, compared with positive compound VER-155008 (Hsp70 [1]): equivalent to that of positive compound VER-155008
Kd (Hsp70 [1]): 0.247 µM

N#Cc1ccc(COC[C@H]2O[C@@H](n3c(NCc4ccc(Cl)c(Cl)c4)nc4c(N)ncnc43)[C@H](O)[C@@H]2O)cc1 [VER-155008]
Kd (Hsp70 [2]): 0.3 µM

CSc1nccc(N2CCC(N(C)C(=O)O[C@H]3CCN(S(=O)(=O)c4cccs4)C3)CC2)n1 [Example 13, (S)-[1-(2-thienylsulfonyl)pyrrolidin-3-yl] N-methyl-N-[1-(2-methylthiopyrimidin-4-yl)piperidin-4-yl]carbamate]
effect in preliminary screening of binding to Hsp70, compared with positive compound VER-155008 (Hsp70 [1]): equivalent to that of positive compound VER-155008
Kd (Hsp70 [1]): 0.52 µM

COc1nccc(N2CCC(N(C)C(=O)OC(C)(C)C)CC2)n1 [Example 5, t-butyl N-methyl-N-[1-(2-methoxypyrimidin-4-yl)piperidin-4-yl]carbamate]
effect in preliminary screening of binding to Hsp70, compared with positive compound VER-155008 (Hsp70 [1]): equivalent to that of positive compound VER-155008

COc1ccnc(N2CCC(N(C)C(=O)Cn3cncn3)CC2)n1 [Example 42, N-methyl-N-[1-(4-methoxypyrimidin-2-yl)piperidin-4-yl]-2-(1H-1,2,4-triazol-1-yl) acetamide]
effect in preliminary screening of binding to Hsp70, compared with positive compound VER-155008 (Hsp70 [1]): equivalent to that of positive compound VER-155008
Kd (Hsp70 [1]): 0.434 µM

CSc1nccc(N2CCC(N(C)C(=O)OC(C)(C)C)CC2)n1 [Example 6, t-butyl N-methyl-N-[1-(2-methylthiopyrimidin-4-yl)piperidin-4-yl]carbamate]
effect in preliminary screening of binding to Hsp70, compared with positive compound VER-155008 (Hsp70 [1]): equivalent to that of positive compound VER-155008
Kd (Hsp70 [1]): 12.7 µM

CS(=O)(=O)CCNCc1ccc(-c2ccc3ncnc(Nc4ccc(OCc5cccc(F)c5)c(Cl)c4)c3c2)o1 [Lapatinib, reference compound]
Survival rate % (SK/Lap^R1.0; [6]): 92.7%
Survival rate % (BT/Lap^R1.0; [6]): 53.0%
Survival rate % (MDA-MB-361; [6]): 70.4%
Survival rate % (BT474; [6]): 25.1%
Survival rate % (SK-BR3; [6]): 26.3%

CN(C(=O)OC(C)(C)C)C1CCN(c2cc(Cl)ncn2)CC1 [Example 3, t-butyl N-methyl-N-[1-(6-chloropyrimidin-4-yl)piperidin-4-yl]carbamate]
effect in preliminary screening of binding to Hsp70, compared with positive compound VER-155008 (Hsp70 [1]): equivalent to that of positive compound VER-155008
Kd (Hsp70 [1]): 0.525 µM

CN(C(=O)OC(C)(C)C)C1CCN(c2nccc(Cl)n2)CC1 [Example 1, t-butyl N-methyl-N-[1-(4-chloropyrimidin-2-yl)piperidin-4-yl]carbamate]
effect in preliminary screening of binding to Hsp70, compared with positive compound VER-155008 (Hsp70 [1]): equivalent to that of positive compound VER-155008
Kd (Hsp70 [1]): 2.19 µM
